# Tests used:
# [1] = system: PPC-1, OVCAR-3, T47D, MDA-MB-468 and DU 145 cells; assay: MTS viability with CH-11 after FLIP siRNA transfection; type: cell-based; settings: PPC-1 cells transfected with FLIP siRNA 10 nM
# Method: FIG. 8. Decreases in FLIP by compound 5809354 are functionally important. (A) PPC-1, OVCAR-3, T47D, and DU 145 cells (2×10^5) were seeded into 35 mm plates and transfected with double-stranded siRNA targeting FLIP (f), control ds RNA (c), or mock transfected with buffer alone (m). At 24 hours after transfection, cells were treated with CH-11 (100 ng/mL) or buffer control. Cell viability was measured by an MTS assay and expressed as a percentage of untreated control cells (mean+SD; n=3). (B) Levels of FLIP protein were measured by immunoblotting. (C) PPC-1 cells (2×10^5) were seeded into 35 mm plates and transfected with siRNAs (10 nM) targeting FLIP or luciferase as a control (CNTRL). At 24 hours after transfection, cells were treated with increasing concentrations of 5809354 with or without CH-11 anti-FAS antibody (100 ng/mL) for an additional 24 hours. Cell viability was measured by an MTS assay, and expressed as a percentage of control untreated cells (mean+SD; n=3).
# Transfection of siRNA oligonucleotides. […]
# To test the functional importance of decreases in FLIP by 5809354, it was determined whether knocking down FLIP could recapitulate the activity of the molecule and abrogate 5809354's ability to sensitize cells to CH-11. […]
# [2] = system: PPC-1 cells; assay: Anoikis of PPC-1 cells in suspension versus adherent conditions (annexin V/PI, DAPI, colony formation); type: cell-based, human
# Method: FIG. 12. Depletion of endogenous FLIP levels by siRNA sensitizes malignant cells to anoikis. (A) PPC-1 cells were seeded in adherent conditions overnight and then transfected with 25 nM anti-FLIP siRNA (siFLIP) or control luciferase siRNA (siCtrl). Thirty hours after transfection, cells were harvested, total protein isolated and analyzed by SDS-PAGE immunoblotting using anti-FLIP and anti-actin antibodies. (B) PPC-1 cells were transfected with increasing concentrations of siFLIP or siCtrl. After transfection, cells were treated with CH-11 Fas activating antibody (100 ng/ml). Thirty hours after incubation, cells were harvested and apoptosis measured by flow cytometry to detect cell surface annexin V expression and PI uptake. Data represents the mean±SEM percent of viable cells. (C) PPC-1 cells were transfected with increasing concentrations of siFLIP or siCtrl. After transfection, cells were subcultured under suspension conditions for 30 hours and then harvested. Apoptosis was measured by flow cytometry to detect cell surface annexin V expression and PI uptake. Data represents the mean±SEM of percent of viable cells. (D) Equal volumes of PPC-1 cells from panel C were replated under adherent conditions to permit clonogenic growth. One week after replating, cells were stained with methylene blue and the number of colonies counted. Data represents the mean±SEM percent of colonies compared to untreated controls.
# FIG. 13. Small molecule down-regulation of FLIP sensitizes prostate cancer cells to anoikis. (A) PPC-1 cells were seeded overnight in adherent conditions and then treated with increasing concentrations of 5809354 for 16 hours. After incubation, cells were harvested. Total cellular RNA was extracted and mRNA levels of the long isoform of FLIP (FLIPL), the short isoform of FLIP (FLIPS), or rRNA levels of 18S were detected by real-time RT-PCR. Data were normalized using the ΔΔCT method and expressed as the mean±SEM percent of […] expression relative to untreated controls. (B) PPC-1 cells were cultured and treated as in panel A. Total cellular protein was isolated and analyzed by SDS-PAGE immunoblotting using anti-FLIP and anti-Actin antibodies. (C) PPC-1 cells were seeded overnight in adherent conditions and then exposed to increasing concentrations of 5809354 in the presence or absence of Fas-activating antibody (CH-11, 100 ng/mL). Thirty hours after incubation, cell viability was determined using the MTS assay. Data represents the mean±SEM of percent of viable cells. (D) PPC-1 cells were seeded overnight in adherent or suspension conditions and then treated with increasing concentrations of 5809354 for 30 hours. After incubation, apoptosis was measured by flow cytometry to detect cell surface annexin V expression and PI. Data represents the mean±SEM of percent of viable cells. (E) Cells were harvested, fixed, stained with DAPI, and nuclear morphology analyzed by fluorescence microscopy. Arrowheads refer to fragmented nuclei indicative of apoptosis. […] Thirty hours after incubation, cells were harvested and equal volumes plated in a colony formation assay. One week later, cells were stained with methylene blue and the number of colonies counted. Data represents the mean ±SEM percent of colonies relative to untreated controls.
# FIG. 15. 5809354 sensitizes cells to anoikis through a caspase 8 dependent mechanism. (A) PPC-1 cells (5×10^4) were cultured under suspension conditions overnight and then treated with 5809354 in the presence or absence of the pan-caspase inhibitor z-VAD-fink (100 μM). Thirty hours after incubation, anoikis was determined by flow cytometry to detect cell surface annexin V expression and PI uptake. Data represents the mean±SEM percent of viable cells or colonies compared to untreated controls. (B) PPC-1 cells (5×10^4) were cultured in suspension conditions overnight and then treated with 5809354 (60 μM). […]
Compound,enhancement of CH-11-mediated killing in the presence of FLIP siRNA [1],"sensitization to anoikis ([2]; suspension conditions, 30 hours)","effect of z-VAD-fmk on anoikis ([2]; suspension conditions, z-VAD-fmk 100 μM)",apoptosis under adherent conditions ([2]; up to five days after treatment),apoptosis in suspension versus adherent cells ([2]; thirty hours)
4-(4-chloro-2-methylphenoxy)-N-hydroxybutanamide [compound 5809354],the longer enhanced CH-11-mediated killing,sensitized cells to anoikis,z-VAD-fmk inhibited the ability of 5809354 to promote anoikis,did not induce apoptosis,
"CN[C@@H]1C[C@H]2O[C@@](C)([C@@H]1OC)n1c3ccccc3c3c4c(c5c6ccccc6n2c5c31)C(=O)NC4 [staurosporine, reference compound]",,,,,did not discriminate between suspension and adherent cells

# From patent publication US8008354B2, “Death receptor sensitizing compounds and methods of use therefor” (Burnham Institute for Medical Research, priority 2006, dated 2011)
